Patent US8073630B2, “Pharacogenetic method for prediction of the efficacy of methotrexate monotherapy in recent-onset arthritis” (Exagen Diagnostics, Inc., priority 2006, dated 2011)

Key:
[1] = tested on: patients with recent onset RA; experiment: MTX monotherapy efficacy in recent-onset RA patients (BeSt study subcohort), DAS response at 6 months; format: in vivo, human
Source text: The 205 patients enrolled in this study comprised a subcohort of the 508 patients who participated in the BeSt study. (5) The BeSt study is a randomized, multicenter, single-blinded, clinical study comparing the clinical efficacy of four different treatment strategies in recent onset RA including sequential monotherapy (n=126 starting with MTX), step up to combination therapy of MTX with sulfasalazine (SSZ, n=121 starting with MTX), initial combination therapy with MTX, SSZ and a high tapered dose of prednisolone (n=133), or initial biologic therapy with infliximab plus MTX (n=128). Inclusion criteria for patients in the study comprise the American College of Rheumatology (ACR) 1987 criteria for RA (23), an age ≧18 years, and a disease duration of <2 years. Patients were also required to have active RA, defined as ≧6 swollen joints (out of 66) and ≧6 tender joints (out of 68) and either an erythrocyte sedimentation rate (ESR) ≧28 mm/hour or a score of ≧20 mm on 100 mm visual analogue scale (VAS) for patient's assessment of global health (0=best, 100=worst). […]
Patients allocated initial monotherapy with MTX with available DNA samples (n=205) were included in the current analysis. […] A research nurse who was blinded to the allocated treatment group assessed the DAS every 3 months. […]

RA patients = experiment: Replication cohort of RA patients on MTX monotherapy (BeSt and UMCN), response at 6 months; format: in vivo, human; details: replication group n=38 (n=17 responders); average MTX dosage 19 mg weekly (range 5-25 mg weekly)
Description: Thirty-eight patients were recruited to replicate the genetic model. The validation cohort data were collected after development of the predictive model, but the investigators were blinded to either the clinical parameters or the genotyping results for the replication group. Fourteen patients were available from the BeSt study; they were treated with initial MTX monotherapy, but DNA samples were obtained after the clinical pharmacogenetic model was developed. Twenty-four patients were available from the RA cohort of the rheumatology department at the University Medical Center Nijmegen (UMCN), consisting of 553 patients (5, 51). Patients were eligible for the replication cohort if they fulfilled the ACR 1987 criteria for RA, started with MTX monotherapy, had not been treated previously with DMARDs other than antimalarial agents, and had disease duration of less than 2 years. In addition, clinical data comprising the prediction model and DNA samples had to be available. In the UMCN cohort, 352 patients were recorded as having received MTX at any time point. […]
The response at 6 months after starting MTX treatment in the group of RA patients (n=38) in the replication model was 45% (n=17), with an average MTX dosage of 19 mg weekly (range 5-25 mg weekly). […] The calculated simple scores in the replication group of RA patients ranged from 1 to 9. […]

patients who discontinued MTX permanently after experiencing ADEs ([1]; of the 205 patients, within first 6 months): 10 patients
Structure (SMILES): CN(Cc1cnc2nc(N)nc(N)c2n1)c1ccc(C(=O)N[C@@H](CCC(=O)O)C(=O)O)cc1 [MTX, Methotrexate]
responders (DAS of ≦2.4, good clinical response) ([1]; at 6 months of treatment with MTX, oral MTX 7.5 mg weekly increasing to 15 mg, stepwise to 25 mg weekly, with folic acid 1 mg daily, 186 patients evaluable (n=87 responders)): 47 % of patients
response at 6 months after starting MTX treatment (RA patients): 45%
